Here are results for eleven compounds from ChEMBL document CHEMBL4261647, “Synthesis, DNA and protein interactions and human topoisomerase inhibition of novel Spiroacridine derivatives” (Bioorg Med Chem, 2018).

In general, inhibition refers to how much of the control response was suppressed.

Data set [1] addresses DNA topoisomerase 2-alpha (Homo sapiens) (UniProt P11388). In words: Inhibition of recombinant human topoisomerase 2alpha assessed as decrease in relaxation of supercoiled pUC19 DNA at 100 uM after 30 mins by ethidium bromide staining based agarose gel electrophoresis relative to control.
The target in data set [2] is T1, Albumin (Bos taurus, UniProt P02769). As to the kind of experiment: Binding affinity to bovine serum albumin assessed as Stern-Volmer quenching constant by fluorescence spectroscopic analysis. The class given is ADME. As to conditions: cattle, isolated protein.
T1 sequence (P02769 whole entry): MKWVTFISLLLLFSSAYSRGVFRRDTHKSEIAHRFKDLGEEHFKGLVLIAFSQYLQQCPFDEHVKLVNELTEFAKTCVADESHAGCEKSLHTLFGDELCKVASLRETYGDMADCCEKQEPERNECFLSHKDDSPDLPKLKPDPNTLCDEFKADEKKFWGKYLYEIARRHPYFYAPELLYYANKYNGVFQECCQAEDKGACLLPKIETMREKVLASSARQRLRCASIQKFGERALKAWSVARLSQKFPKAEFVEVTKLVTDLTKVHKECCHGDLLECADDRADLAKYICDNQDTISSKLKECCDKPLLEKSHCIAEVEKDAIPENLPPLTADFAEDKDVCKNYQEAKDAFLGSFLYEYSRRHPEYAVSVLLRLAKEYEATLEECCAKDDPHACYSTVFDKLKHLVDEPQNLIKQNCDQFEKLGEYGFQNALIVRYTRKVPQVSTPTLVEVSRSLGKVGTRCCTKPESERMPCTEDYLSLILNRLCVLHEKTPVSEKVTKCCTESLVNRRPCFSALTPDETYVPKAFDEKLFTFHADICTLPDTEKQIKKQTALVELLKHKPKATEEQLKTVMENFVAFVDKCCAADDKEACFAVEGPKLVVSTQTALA
Data set [3] concerns the target T1, Albumin. In words: Binding affinity to bovine serum albumin assessed as decrease in protein fluorescence intensity up to 10 uM by fluorescence spectroscopic analysis. The class given is ADME. On the set-up: scale not given: the % may be the effect or the level left. Particulars: cattle, isolated protein.
In data set [4] the test system is Calf thymus DNA. As to the kind of experiment: Binding affinity to calf thymus DNA by UV-vis absorption spectral analysis. The class given is nucleic-acid assay. As to conditions: Bos taurus.
The test system of data set [5] is Calf thymus DNA. In words: Binding affinity to calf thymus DNA assessed as hypochromic effect up to 10 uM by UV-vis absorption spectral analysis. Particulars: Bos taurus. In kind it is nucleic-acid assay.
The test system of data set [6] is Calf thymus DNA. As to the kind of experiment: Binding affinity to calf thymus DNA assessed as hyperchromic effect up to 10 uM by UV-vis absorption spectral analysis. Particulars: Bos taurus. The class given is nucleic-acid assay.

Chain of DNA topoisomerase 2-alpha (Homo sapiens) (P11388 whole entry): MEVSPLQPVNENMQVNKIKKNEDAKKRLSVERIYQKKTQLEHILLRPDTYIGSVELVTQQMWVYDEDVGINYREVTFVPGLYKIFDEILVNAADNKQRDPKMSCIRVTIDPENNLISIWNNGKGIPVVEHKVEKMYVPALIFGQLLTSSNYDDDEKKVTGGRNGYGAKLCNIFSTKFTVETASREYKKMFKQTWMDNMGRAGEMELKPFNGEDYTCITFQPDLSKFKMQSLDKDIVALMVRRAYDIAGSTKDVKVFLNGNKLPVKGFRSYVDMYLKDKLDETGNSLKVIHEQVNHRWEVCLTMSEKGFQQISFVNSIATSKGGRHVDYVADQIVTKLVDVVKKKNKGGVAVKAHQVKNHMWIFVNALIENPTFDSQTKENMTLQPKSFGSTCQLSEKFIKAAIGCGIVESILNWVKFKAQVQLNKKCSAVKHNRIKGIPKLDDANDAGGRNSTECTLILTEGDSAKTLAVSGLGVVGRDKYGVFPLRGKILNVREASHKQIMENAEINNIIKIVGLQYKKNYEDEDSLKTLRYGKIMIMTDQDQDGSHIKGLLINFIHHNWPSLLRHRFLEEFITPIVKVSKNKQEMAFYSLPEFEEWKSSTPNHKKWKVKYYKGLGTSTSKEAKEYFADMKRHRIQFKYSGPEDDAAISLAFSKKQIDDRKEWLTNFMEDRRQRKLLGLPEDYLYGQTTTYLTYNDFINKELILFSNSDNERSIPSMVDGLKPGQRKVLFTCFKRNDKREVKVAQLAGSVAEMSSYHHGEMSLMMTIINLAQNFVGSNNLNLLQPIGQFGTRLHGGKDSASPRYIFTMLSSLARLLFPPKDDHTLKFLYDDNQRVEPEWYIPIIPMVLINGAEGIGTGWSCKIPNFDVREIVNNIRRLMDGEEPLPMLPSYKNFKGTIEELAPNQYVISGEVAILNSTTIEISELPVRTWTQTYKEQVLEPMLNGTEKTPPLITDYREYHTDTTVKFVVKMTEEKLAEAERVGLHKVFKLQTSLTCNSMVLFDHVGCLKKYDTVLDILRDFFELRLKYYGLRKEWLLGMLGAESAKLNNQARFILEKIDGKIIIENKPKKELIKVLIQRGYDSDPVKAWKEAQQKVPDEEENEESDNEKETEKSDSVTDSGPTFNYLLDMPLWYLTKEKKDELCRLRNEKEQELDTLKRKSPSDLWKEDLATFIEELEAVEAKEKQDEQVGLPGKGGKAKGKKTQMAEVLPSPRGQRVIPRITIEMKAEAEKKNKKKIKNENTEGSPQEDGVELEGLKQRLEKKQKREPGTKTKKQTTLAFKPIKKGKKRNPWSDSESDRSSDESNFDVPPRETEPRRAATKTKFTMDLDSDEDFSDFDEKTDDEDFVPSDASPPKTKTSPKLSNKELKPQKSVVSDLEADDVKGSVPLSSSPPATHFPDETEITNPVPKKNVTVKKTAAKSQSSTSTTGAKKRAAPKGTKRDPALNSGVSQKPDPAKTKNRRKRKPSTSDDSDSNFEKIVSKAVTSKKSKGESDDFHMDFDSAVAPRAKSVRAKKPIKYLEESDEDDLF

For the compound `N#CC1=CC2(c3ccccc3Nc3ccccc32)N(/N=C/c2ccccc2)C1=O`, the inhibition in data set [1] is 9.78%.

For the compound `CCOc1cc(/C=N/N2C(=O)C(C#N)=CC23c2ccccc2Nc2ccccc23)ccc1O`, at Albumin [2], the KSV is on record as 2.3 ×10⁴ /M. Moreover, the Activity worked out at 58.57% on Albumin [3] and 14.4% in the data set on Calf thymus DNA [5]. Besides, the Kb in the data set with Calf thymus DNA [4] was 2.6 ×10⁵ /M. The inhibition in data set [1] was found to be 20.6%.

In the case of `COc1ccc(Br)cc1/C=N/N1C(=O)C(C#N)=CC12c1ccccc1Nc1ccccc12`, at Albumin [2], the KSV turned out to be 1.9 ×10⁴ /M. Moreover, the values for the Activity on Albumin [3] and in the data set on Calf thymus DNA [5] were 42.53% and 100%, respectively. In the data set with Calf thymus DNA [4], the Kb came to 6.7 ×10⁵ /M. In addition, the inhibition in data set [1] was found to be 1.64%.

As for `N#CC1=CC2(c3ccccc3Nc3ccccc32)N(/N=C/c2ccccc2[N+](=O)[O-])C1=O`, at Albumin [2], the KSV came out at 2.3 ×10⁴ /M. Besides, the Activity at Albumin [3] was determined as 51.46%; in the data set with Calf thymus DNA [5], 8.06%. Further, the Kb with Calf thymus DNA [4] was found to be 3.7 ×10⁵ /M. Moreover, the inhibition in data set [1] is 1.64%.

`N#CC1=CC2(c3ccccc3Nc3ccccc32)N(/N=C/c2ccc(Cl)cc2)C1=O`: the KSV at Albumin [2] is 3.4 ×10⁴ /M. Further, the Activity on Albumin [3] was determined as 60.3%; in the data set with Calf thymus DNA [5], 44.3%. The Kb in the data set with Calf thymus DNA [4] turned out to be 7.6 ×10⁵ /M. Moreover, in data set [1], the inhibition came out at 84.3%.

Consider `COc1ccc(/C=N/N2C(=O)C(C#N)=CC23c2ccccc2Nc2ccccc23)cc1`, for which the inhibition in data set [1] amounted to 88.1%.

Regarding `N#CC1=CC2(c3ccccc3Nc3ccccc32)N(/N=C/c2ccc(Cl)cc2Cl)C1=O`, the KSV at Albumin [2] was determined as 2 ×10⁴ /M. Further, the values for the Activity on Albumin [3] and with Calf thymus DNA [6] were 48.01% and 65.3%, respectively. This compound also came in with a Kb in the data set on Calf thymus DNA [4] of 8.2 ×10⁵ /M. For the same compound, the inhibition in data set [1] turned out to be 61.7%.

Take `N#CC1=CC2(c3ccccc3Nc3ccccc32)N(/N=C/c2c(Cl)cccc2Cl)C1=O`: the KSV at Albumin [2] turned out to be 2.1 ×10⁴ /M. In addition, the Activity turned out to be 45.77% on Albumin [3] and 30% with Calf thymus DNA [5]. This compound showed a Kb with Calf thymus DNA [4] of 1.6 ×10⁵ /M. Besides, the inhibition in data set [1] is 15.9%.

Take `N#CC1=CC2(c3ccccc3Nc3ccccc32)N(/N=C/c2ccc([N+](=O)[O-])cc2)C1=O`: the KSV at Albumin [2] was 3.1 ×10⁴ /M. Also, the Activity stood at 71.74% at Albumin [3] and 13.5% in the data set on Calf thymus DNA [5]. The same compound had a Kb in the data set on Calf thymus DNA [4] of 4.8 ×10⁶ /M. Also, the inhibition in data set [1] was determined as 43.7%.

With `CN(C)c1ccc(/C=N/N2C(=O)C(C#N)=CC23c2ccccc2Nc2ccccc23)cc1`, the KSV on Albumin [2] is 2.7 ×10⁴ /M. Further, the results for the Activity at Albumin [3] and in the data set on Calf thymus DNA [5] were 54.95% and 7.14%, respectively. In addition, in the data set on Calf thymus DNA [4], the Kb stood at 1.1 ×10⁸ /M. Moreover, the inhibition in data set [1] was 1.64%.

For `N#CC1=CC2(c3ccccc3Nc3ccccc32)N(/N=C/c2ccc(F)cc2)C1=O`, on Albumin [2], the KSV was 2.3 ×10⁴ /M. The Activity at Albumin [3] was 55.11%; in the data set on Calf thymus DNA [6] it was 45.8%. The same compound yielded a Kb with Calf thymus DNA [4] of 1.5 ×10⁵ /M. Besides, the inhibition in data set [1] amounted to 70.7%.
